Patent US20250177412A1, “SMALL-MOLECULE INHIBITORS TARGETING THE BOB1/OCT1 INTERFACE” (NANTES UNIVERSITE, priority 2022, published 2025)

Experiments:
[1] = target: OCT1 (endogenous) + BOB1 (transfected) (Homo sapiens) (UniProt P14859+Q16633); experiment: cell_activity; settings: BOB1 stimulation over endogenous OCT1 alone, HEK293 luciferase; attenuated by compounds 004, 005, 006 at 10 uM
[2] = test system: BOB1/OCT1-mediated transcription; experiment: Luciferase reporter assay (transient transfection, 6xPORE-luc); type: cell-based, human; settings: 10 μM in the culture medium
Method: FIGS. 1A-C are a combination of graphs showing that compound 005 inhibits BOB1/OCT1-mediated transcription in vitro. HEC293Ea1 cells, known to express endogenous OCT1, were co-transfected with […] reporter, pEV-OBF1 (BOB1) effector, and pCMV-β-gal calibrator plasmids. Luciferase and β-galactosidase activities were measured 48 hours after transfection. The 100% luciferase activity was set as activity in presence of vehicle (10 μM DMSO). […] All experiments are performed at least in triplicates. Bars indicate the mean±SEM. * P<0.05, ** P<0.01, *** P<0.001, **** P<0.0001.
The HEK293E1a cells were seeded at density 1.2×10^4 per well on 48-well plate in DMEM medium containing 10% fetal calf serum. After 24 hours cells were transfected with plasmid mix (300 ng/well) containing specified amounts of the p6×PORE-luc reporter, pEV-OBF1 and pCG-Oct1 effector, pBluescript II KS+ carrier, and pCMV-βgal (for standardization) as previously described. The transfections were carried out in three biological replicates, using Polyethylenimine (PEI 25K, Polysciences Inc.) at the ratio 2:1 to DNA. After 48 hours, cells were washed with PBS, lysed, and measured for luciferase activity, using the Bright-Glo luciferase assay system (Promega), and for β-galactosidase activity in a standard assay.
BOB1 has been described as a coactivator acting in cooperation with the POU-domain proteins OCT1 and OCT2 bound to distinct DNA-motifs either in monomeric or dimeric configurations. […] As an initial functional assay, we examined the ability of the compounds according to the present invention to affect BOB1-OCT1-PORE-mediated transcriptional activation in transient transfection luciferase assay. To this end, we made use of previously generated 6×PORE-luc and reporter plasmid, in which hexamers of the PORE were cloned upstream of the thymidine kinase (tk) minimal promoter and luciferase gene. […] Furthermore, the addition of a plasmid expressing exogenous OCT1 exerted an inhibitory effect on both basal and BOB1-mediated transcription (data not shown). This observation is likely due to the fact that HEK293 cells, like all other mammalian cell types, express OCT1, and further addition of exogenous OCT1 in these cells shifts the BOB1/OCT1 equilibrium out of optimal range, resulting in squelching effect, and in our experimental setup, in about 3-fold stimulation, as compared to that by endogenous OCT1 alone (FIG. 1A). […] Compound 005 was selected for further detailed investigation.

Sequence of OCT1 (endogenous) + BOB1 (transfected) (Homo sapiens) (P14859 other isoform, or with tags, fused parts or gaps, chain 1 of 2): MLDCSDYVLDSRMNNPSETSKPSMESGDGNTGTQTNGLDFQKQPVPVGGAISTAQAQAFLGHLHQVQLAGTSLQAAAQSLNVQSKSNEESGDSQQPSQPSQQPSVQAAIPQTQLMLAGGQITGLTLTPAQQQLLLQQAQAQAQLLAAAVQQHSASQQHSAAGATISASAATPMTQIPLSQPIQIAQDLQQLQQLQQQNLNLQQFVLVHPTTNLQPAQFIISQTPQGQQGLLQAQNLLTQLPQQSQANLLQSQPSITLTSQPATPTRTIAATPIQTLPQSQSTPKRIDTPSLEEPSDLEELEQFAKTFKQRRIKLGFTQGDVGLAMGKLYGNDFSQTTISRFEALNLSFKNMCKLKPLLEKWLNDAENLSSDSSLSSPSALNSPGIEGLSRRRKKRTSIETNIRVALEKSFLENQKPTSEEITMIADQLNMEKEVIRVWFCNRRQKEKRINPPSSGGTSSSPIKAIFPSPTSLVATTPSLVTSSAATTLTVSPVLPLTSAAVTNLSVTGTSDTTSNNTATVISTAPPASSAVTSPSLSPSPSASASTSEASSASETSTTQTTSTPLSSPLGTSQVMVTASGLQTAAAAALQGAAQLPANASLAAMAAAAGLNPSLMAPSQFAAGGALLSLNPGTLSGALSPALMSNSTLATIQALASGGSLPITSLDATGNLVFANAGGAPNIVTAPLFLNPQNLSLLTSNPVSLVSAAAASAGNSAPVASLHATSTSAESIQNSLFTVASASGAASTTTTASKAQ
Sequence of OCT1 (endogenous) + BOB1 (transfected) (Homo sapiens) (Q16633 whole entry, chain 2 of 2): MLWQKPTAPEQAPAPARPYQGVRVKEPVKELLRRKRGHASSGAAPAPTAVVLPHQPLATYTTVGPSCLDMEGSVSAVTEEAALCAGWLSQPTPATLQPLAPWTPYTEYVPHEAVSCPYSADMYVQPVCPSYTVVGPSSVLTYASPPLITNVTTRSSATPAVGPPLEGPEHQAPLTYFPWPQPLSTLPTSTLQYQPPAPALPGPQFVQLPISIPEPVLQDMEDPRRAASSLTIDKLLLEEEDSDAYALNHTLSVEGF

Row | Compound | activity [1] [fold] | BOB1/OCT1-driven transcription (relative luciferase activity) [2]
1 | 6xPORE-tk-luc reporter | 3 | 
2 | O=C(O)CCNc1nc(NCCCc2ccc(F)cc2)nc(N2CCCC(C(=O)N3CCC(Cc4ccccc4)CC3)C2)n1 (stereo not drawn) [compound 006, 3-((4-(3-(4-benzylpiperidine-1-carbonyl)piperidin-1-yl)-6-((3-(4-fluorophenyl)propyl)amino)-1,3,5-triazin-2-yl)amino)propanoic acid] |  | significantly attenuated
3 | O=C(Nc1ccc(Br)c(C(F)(F)F)c1)C1CCCCN1c1nc(NCc2cccc(F)c2)nc(N(CCO)CCO)n1 (stereo not drawn) [compound 004, 1-(4-(bis(2-hydroxyethyl)amino)-6-((3-fluorobenzyl)amino)-1,3,5-triazin-2-yl)-N-(4-bromo-3-(trifluoromethyl)phenyl)piperidine-2-carboxamide] |  | significantly attenuated
